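A five-concentration, 48-hour dose response in 96-well plates underlies each endpoint, interpolated linearly between surrounding concentrations. Abbreviation: GI50, concentration required for 50% inhibition of growth. The concentration for full growth arrest is given as TGI.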
Key:
Test in all cases: growth of human tumour cells (NCI), 48 h
SF-268 CNS = system: SF-268 CNS
UACC-62 melanoma = system: UACC-62 melanoma
MCF7 breast = system: MCF7 breast
M14 melanoma = system: M14 melanoma
LOX IMVI melanoma = system: LOX IMVI melanoma
IGROV1 ovarian = system: IGROV1 ovarian
DU-145 prostate = system: DU-145 prostate
OVCAR-4 ovarian = system: OVCAR-4 ovarian
HL-60(TB) leukemia = system: HL-60(TB) leukemia
OVCAR-8 ovarian = system: OVCAR-8 ovarian

Row | Structure (SMILES) | GI50 (SF-268 CNS) [µM] | TGI (SF-268 CNS) [µM] | GI50 (UACC-62 melanoma) [µM] | TGI (UACC-62 melanoma) [µM] | GI50 (MCF7 breast) [µM] | TGI (MCF7 breast) [µM] | GI50 (M14 melanoma) [µM] | TGI (M14 melanoma) [µM] | GI50 (LOX IMVI melanoma) [µM] | TGI (LOX IMVI melanoma) [µM] | GI50 (IGROV1 ovarian) [µM] | TGI (IGROV1 ovarian) [µM] | GI50 (DU-145 prostate) [µM] | TGI (DU-145 prostate) [µM] | GI50 (OVCAR-4 ovarian) [µM] | TGI (OVCAR-4 ovarian) [µM] | GI50 (HL-60(TB) leukemia) [µM] | TGI (HL-60(TB) leukemia) [µM] | GI50 (OVCAR-8 ovarian) [µM] | TGI (OVCAR-8 ovarian) [µM]
1 | O=C1CC(=O)OC(c2ccc([N+](=O)[O-])cc2)O1 | 2.93 | 11 | 2.14 | 5.54 | 1.59 | 3.84 | 1.97 | 4 | 1.68 | 3.17 | 3.1 | 14.3 | 1.63 | 3.2 | 2.82 | 8.91 | 2.01 | 5.51 | 2.42 | 7.83
2 | COC(=O)CCC1=C(C)/C(=C/c2[nH]c(-c3ccc[nH]3)cc2OC)N=C1C | 0.708 | 7.01 | 0.295 | 0.894 | 0.331 | 1.43 | 0.42 | 1.8 | 0.17 | 0.612 | 1.4 | 12 | 2.17 | 15.1 | 0.626 | 2.12 | 0.414 | 2.38 | 0.39 | 6.69
3 | N#C[C@@H]1C(n2ccc(N)nc2=O)O[C@H](CO)[C@H]1O (some centres not stated) | 22.3 | > 100 | 28 | > 100 | 0.993 | > 100 | 2.97 | > 100 | 11.4 | > 100 | > 100 | > 100 | 5.02 | > 100 | > 100 | > 100 | 29.4 | > 100 | 6 | > 100
4 | COc1ccc(Cn2c(Cl)c(/C=C3/C(=O)Nc4ccccc43)c3cc(OC)c(C)cc32)cc1 | 8.94 | > 100 | 2.17 | 18.7 | 5.87 | > 100 | 3.27 | 15 | 14.3 | > 100 | 13.3 | > 100 | 18.1 | > 100 | 4.01 | > 100 | 4.05 | > 100 | 5.96 | > 100
5 | Fc1cccc(Cl)c1/C=N\N=C1c2ccccc2-c2ccccc21 | – | > 100 | – | > 100 | – | > 100 | – | > 100 | – | > 100 | – | > 100 | – | > 100 | – | > 100 | – | > 100 | – | > 100
6 | O=C(O)CSc1ncccc1[N+](=O)[O-] | – | > 100 | – | > 100 | – | > 100 | – | > 100 | – | > 100 | – | > 100 | – | > 100 | – | > 100 | – | > 100 | – | > 100
7 | CC1CCN(CC(=O)N2c3ccccc3Sc3cc4ccccc4cc32)CC1 | – | > 100 | – | > 100 | – | > 100 | – | > 100 | – | > 100 | – | > 100 | – | > 100 | – | > 100 | – | > 100 | – | > 100
8 | FCc1ncc(-c2ccc(C(F)(F)F)cc2)c(NC2CCCCCC2)n1 | > 10 | > 10 | > 10 | > 10 | > 10 | > 10 | > 10 | > 10 | > 10 | > 10 | > 10 | > 10 | > 10 | > 10 | > 10 | > 10 | > 10 | > 10 | > 10 | > 10
9 | CCN(CCNc1ccc(C)c2sc3ccccc3c(=O)c12)CC(C)(C)O | 14.9 | 32.2 | 2.9 | 9.48 | 11.1 | 26.8 | 4.21 | 12.2 | 6.14 | 18.9 | 13.2 | 31.5 | 15.4 | 38.2 | 21.2 | > 92.1 | 8.9 | > 35.7 | 17.8 | > 71.6
10 | C[C@]12CC[C@@H]3c4ccc(O)cc4C(O)C[C@H]3[C@@H]1CCC2=O (some centres not stated) | > 100 | > 100 | > 100 | > 100 | > 100 | > 100 | > 100 | > 100 | > 100 | > 100 | 58 | > 100 | > 100 | > 100 | 61.1 | > 100 | > 100 | > 100 | > 100 | > 100
11 | CCCCCCN(CCCCCC)CC(O)c1ccc2c3c(cccc13)CC2 (configuration not stated) | 12 | 24.9 | 4.4 | 17.5 | 6.01 | 20.8 | 3.95 | 17 | 3.42 | 14.6 | – | – | 11.6 | 24.7 | 10.3 | 36.8 | 2.16 | 6.16 | 13.1 | 29.4
12 | Cc1cc(N/N=C/c2nc(-c3ccc(Cl)cc3)oc2C)c2cc(Cl)ccc2n1 | 3.15 | 11.2 | 1.8 | 3.54 | 1.35 | 2.97 | 1.96 | 4.13 | 2.01 | 4.18 | 3.38 | 12.6 | 2.45 | 6.9 | 1.68 | 3.33 | 1.98 | 4.82 | 2.05 | 5.06
13 | Cc1cc(-c2nnc3n2CCCCC3)c(C)n1-c1ccc(Cl)c(Cl)c1 | 17.8 | 36.6 | 4.03 | 17 | 4.89 | 20.2 | 14.9 | 33.5 | 12.1 | 32.2 | 17.9 | 42.7 | 27.6 | > 100 | 8.4 | 57.5 | 20.6 | 61.2 | 15.4 | 64.1
14 | c1nnc(NCNc2nncs2)s1 | – | > 100 | – | > 100 | – | > 100 | – | > 100 | – | > 100 | – | > 100 | – | > 100 | – | > 100 | – | > 100 | – | > 100
15 | O=C1c2ccccc2-n2c1nc1ccccc1c2=O | – | > 100 | – | 14.5 | – | 25.2 | – | 11.1 | – | 25.1 | – | > 92.1 | – | 24 | – | 53.7 | – | 41.4 | – | > 82.4
16 | COc1ccc(Cl)cc1Nc1nc(C(F)(F)F)ccc1C(=O)N/N=C/c1cc(OC)c(OC)c(OC)c1 | 1.32 | 5.75 | 2.09 | 3.74 | 1.52 | 7.46 | 1.61 | 3.93 | 1.25 | 3.28 | 0.346 | 2.3 | 4.27 | > 100 | 1.32 | > 100 | 2.21 | 5.77 | 1.59 | 4.89
17 | Oc1ccccc1-c1nc2c3ccccc3c3ccccc3c2[nH]1 | 10.6 | 22.6 | 3.1 | 12.4 | 1.99 | 13.4 | 11.7 | 24 | 3.48 | 12 | 0.0614 | 14.4 | 13.6 | 26.5 | 12.7 | 25.3 | 3.66 | 14.9 | 12.1 | 24.5
18 | COc1cc2nc(-c3ccc(C(F)(F)F)cc3)cc(OCCCN3CCCCC3)c2cc1OC | 3.76 | 24.6 | 1.82 | 6.29 | 1.16 | 4.39 | 0.327 | 1.26 | 0.162 | 0.355 | 0.651 | 16 | 1.84 | 16.5 | 2.91 | 31.3 | 2.91 | 18.3 | 0.734 | 20.4
19 | CC(C)(C)NC(=O)[C@H]1C[C@H]2CCCC[C@H]2CN1C[C@@H](O)[C@H](Cc1ccccc1)NC(=O)[C@H](CC(N)=O)NC(=O)c1ccc2ccccc2n1 | 13 | 30.1 | 13.6 | 27.7 | 19.1 | 43.5 | 13.3 | 28 | 14.6 | 32.1 | 15.4 | 38.8 | 1.78 | 6.95 | 14 | 31.5 | 4.22 | 26.3 | 23 | 62.4
20 | COC(=O)C1=C(C(=O)OC)SC(=C(Cl)C(=S)Sc2ccccc2N)S1 | 29.1 | 68.7 | 19.9 | 78.4 | 16.7 | 34 | 7.35 | 30.3 | 17.8 | 40.3 | – | – | 4.14 | 43.7 | 80.8 | > 100 | > 100 | > 100 | 46.6 | > 100
21 | CN(C)C(=O)O[C@@H]1CN[C@@H](C#Cc2cc3ncnc(Nc4ccc(OCc5cccc(F)c5)c(Cl)c4)c3s2)C1 | 14.5 | > 25 | > 25 | > 25 | > 25 | > 25 | > 25 | > 25 | > 25 | > 25 | 13.1 | > 25 | > 25 | > 25 | > 25 | > 25 | 9.86 | > 22 | 18.7 | > 25
22 | Cc1c2ccc(N(C)c3ccnc(Nc4cccc(S(N)(=O)=O)c4)n3)cc2nn1C | 8.51 | > 25 | 8.38 | > 25 | 8.95 | > 25 | 9.73 | > 25 | 6.86 | > 25 | 10.1 | > 25 | 9.06 | > 25 | 6.23 | > 25 | 8.44 | > 19.1 | 9.91 | > 25
23 | CSc1ccc(/C=C2\C=C(CC(=O)NCc3ccc(C(=O)c4ccccc4)cc3)c3cc(F)ccc32)cc1 | 0.138 | 15.1 | 0.0591 | 10.7 | – | 12.2 | 0.0449 | 4.16 | 0.069 | 6.47 | 0.0848 | 17.7 | 0.0401 | 0.877 | 0.127 | 20.2 | 0.0409 | 0.208 | 0.0497 | 8.12
24 | COc1cc(S(C)(=O)=O)ccc1Nc1nc2ccc(-c3ccc(NC(=O)[C@H](C)c4ccc(F)cc4)cc3)cn2n1 | > 100 | > 100 | 75.6 | > 100 | 0.749 | > 100 | 33.2 | > 100 | 10.6 | > 100 | > 100 | > 100 | > 100 | > 100 | > 100 | > 100 | 12.9 | > 100 | 9.36 | > 100
25 | Cn1cc(CNCC2CCN(c3ncc(C(=O)NO)cn3)CC2)c2ccccc21 | 0.0259 | 0.896 | 0.0118 | 0.0415 | < 0.01 | 2.53 | 0.0114 | 1.25 | 0.0117 | 0.0325 | 0.0245 | 0.352 | 0.0124 | 4.41 | 0.0155 | 52.1 | 0.0242 | 17.5 | < 0.01 | –
26 | CCN(CC)CCCC(C)Nc1c2ccc(C)cc2nc2ccc(OC)cc12 (configuration not stated) | 2.53 | 13.5 | 10.5 | 27.9 | 0.837 | 11.1 | 1.58 | 3.18 | 1.38 | 3.7 | 0.514 | 3.12 | 1.65 | 8.83 | 1.13 | 3.02 | 2.71 | 9.44 | 0.521 | 3.53
27 | CCOc1c(Cl)cc(CNC(C)C(O)c2ccccc2)cc1OC (configuration not stated) | 42.1 | > 100 | 17.9 | 38.9 | 17.8 | 45.2 | – | – | 17 | 30.7 | 70.6 | > 100 | 37.6 | > 100 | 21.6 | 87.4 | 21.1 | 46.1 | 19.8 | 48

— PubChem BioAssay (NCI)
